Data from the NIST ThermoML archive (doi:10.1016/j.fluid.2006.09.014).
Numbers after ± are expanded uncertainties.

Conditions: 298.15 K; 101.33 kPa; Liquid

SMILES | mass density
CC(=O)c1ccccc1 [acetophenone] | 1023 ± 0.7 kg/m3
COc1ccccc1 [anisole] | 989.13 ± 0.21 kg/m3
Clc1ccccc1 [chlorobenzene] | 1100.9 ± 0.5 kg/m3
Cc1ccccc1 [toluene] | 862.27 ± 0.23 kg/m3
